This is an account of results in patent US8445510B2, “Fused bicyclic kinase inhibitors” (OSI Pharmaceuticals, LLC, priority 2011, dated 2013).

Each structure is given as a SMILES string.

Sequence of c-MET (P08581 25-1390): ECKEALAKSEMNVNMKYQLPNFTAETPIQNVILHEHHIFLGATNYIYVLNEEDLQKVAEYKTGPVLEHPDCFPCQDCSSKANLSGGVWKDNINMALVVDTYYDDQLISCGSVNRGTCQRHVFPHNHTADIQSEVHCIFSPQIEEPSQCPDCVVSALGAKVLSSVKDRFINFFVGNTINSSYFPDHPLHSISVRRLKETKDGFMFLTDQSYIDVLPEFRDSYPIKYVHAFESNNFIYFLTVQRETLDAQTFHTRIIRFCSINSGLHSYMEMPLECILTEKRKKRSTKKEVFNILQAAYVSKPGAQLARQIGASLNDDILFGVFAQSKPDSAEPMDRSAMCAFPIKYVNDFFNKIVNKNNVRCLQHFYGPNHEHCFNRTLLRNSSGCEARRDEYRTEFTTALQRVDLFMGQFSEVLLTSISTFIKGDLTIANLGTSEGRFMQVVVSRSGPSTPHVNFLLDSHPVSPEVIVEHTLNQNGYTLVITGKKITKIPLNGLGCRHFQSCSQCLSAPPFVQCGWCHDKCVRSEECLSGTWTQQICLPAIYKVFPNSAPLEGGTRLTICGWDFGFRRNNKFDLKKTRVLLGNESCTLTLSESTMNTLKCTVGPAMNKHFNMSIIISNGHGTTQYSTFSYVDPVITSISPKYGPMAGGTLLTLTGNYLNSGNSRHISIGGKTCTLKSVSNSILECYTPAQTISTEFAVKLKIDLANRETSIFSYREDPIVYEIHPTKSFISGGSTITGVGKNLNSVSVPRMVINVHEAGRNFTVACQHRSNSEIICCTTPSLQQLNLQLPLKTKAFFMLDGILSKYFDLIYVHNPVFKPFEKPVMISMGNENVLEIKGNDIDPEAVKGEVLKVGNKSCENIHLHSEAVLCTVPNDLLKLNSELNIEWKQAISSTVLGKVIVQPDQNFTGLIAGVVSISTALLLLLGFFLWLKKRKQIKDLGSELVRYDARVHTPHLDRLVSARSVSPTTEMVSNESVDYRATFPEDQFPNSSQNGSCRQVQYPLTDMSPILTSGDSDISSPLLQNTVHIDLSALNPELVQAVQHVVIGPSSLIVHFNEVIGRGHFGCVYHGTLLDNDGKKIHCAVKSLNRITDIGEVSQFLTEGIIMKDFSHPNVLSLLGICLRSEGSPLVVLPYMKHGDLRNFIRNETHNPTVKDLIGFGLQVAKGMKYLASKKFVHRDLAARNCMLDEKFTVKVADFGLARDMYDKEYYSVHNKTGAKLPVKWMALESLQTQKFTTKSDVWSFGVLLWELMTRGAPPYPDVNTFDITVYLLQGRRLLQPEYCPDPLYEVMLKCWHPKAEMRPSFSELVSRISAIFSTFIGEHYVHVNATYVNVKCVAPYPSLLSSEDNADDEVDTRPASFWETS

The assay concerns the target c-MET (Homo sapiens, UniProt P08581). Description: MET cell mechanistic assay (MKN45), phosphorylated MET ELISA. The format is cell-based. The following applies: MKN45 cell line; inhibition of phosphorylated MET; 4 hours incubation; at least duplicate experiments; read-out: MET mech IC50. As to the method:
The cellular activity of the compounds of the present invention against c-MET may be determined by the following procedure. MKN45 cells were plated in Falcon 3072 96-well plates in growth media (RPMI, 10% FBS, 1% L-glutamine) at a density of 5000 cells/well and incubated at 37° C., 5% CO2 overnight. The following day, one-tenth volume of a 10× concentration of compounds was added to the wells in a 6-point dilution series. The dilutions series was composed of an initial 1:5 dilution in DMSO, followed by a 1:10 dilution in growth media, for a final DMSO concentration on cells of 0.5%. Control wells were treated with 0.5% DMSO. The typical range of dilution was 10 μM to 3 nM. Once compound was added to the cells, plates were incubated for 4 hours at 37° C., 5% CO2. Plates were then washed in PBS, and lysed in triton-based lysis buffer. Lysates were transferred to a precoated capture plate made by Biosource (Cat # KHO0281). The phosphorylated MET levels were measured by incubating with a rabbit polyclonal antibody against phosphorylated MET ([pYpYpY1230/1234/1235]) followed by an anti-rabbit antibody conjugated to HRP. Signal was measured on a Wallac Victor plate reader at 450 nm. The DMSO signal of the control wells was defined as 100% and the percent of inhibition of phosphorylated MET was expressed as percent of control. IC50 values were determined from the percent of control data using a standard four-parameter model.
The IC50 values of exemplary compounds of the present invention determined in a MET cell mechanistic assay using the MKN45 cell line according to the procedures described herein in at least duplicate experiments are abbreviated as follows and are shown in Table 1: A, IC50≦0.05 μM; B, 0.05 μM<IC50≦0.2 μM; C, 0.2 μM<IC50≦1 μM; D, IC50>1 μM; ND, not determined. The Example # of Table 1 corresponds to the compound example number as illustrated in the Examples section.
Treatment of this cell line with a selective c-MET inhibitor led to induction of apoptosis and inhibition of proliferation, whereas non-MET-amplified cell lines were not affected [Smolen et al., Proc. Natl. Acad. Sci. USA, 103(7):2316-2321 (2006)]. This cell line is thus “driven” by c-MET, and antiproliferative effects correlate very well with the inhibition of c-MET phosphorylation so that the cell proliferation IC50, values can be used as surrogate for the c-MET cell mechanistic IC50, values. Under the assay conditions described herein, the IC50 values correlate nearly 1:1.
In general terms: ELISA stands for enzyme-linked immunosorbent assay.
For `C[C@H](c1c(OC(F)F)ccc(F)c1Cl)c1c[nH]c2ncc(-c3cnc([C@H]4CC[C@H](O)CC4)n3C)cc12` [Example 126, trans-4-[5-(3-{(1S)-1-[2-Chloro-6-(difluoromethoxy)-3-fluorophenyl]ethyl}-1H-pyrrolo[2,3-b]pyridin-5-yl)-1-methyl-1H-imidazol-2-yl]cyclohexanol], the IC50 – broadly, the concentration that gives 50% inhibition – is no more than 50 nM.
With `Cc1c(-c2cnc3[nH]cc([C@H](CF)c4c(OC(F)F)ccc(F)c4Cl)c3c2)cnn1[C@H]1CC[C@H](O)CC1` [Example 124, trans-4-[4-(3-{(1S)-1-[2-chloro-6-(difluoromethoxy)-3-fluorophenyl]-2-fluoroethyl}-1H-pyrrolo[2,3-b]pyridin-5-yl)-5-methyl-1H-pyrazol-1-yl]cyclohexanol], the IC50 is no more than 50 nM.
With `COc1ccc(F)c(Cl)c1[C@@H](CF)c1c[nH]c2ncc(-c3cnn([C@H]4CC[C@H](O)CC4)c3C)cc12` [Example 121, trans-4-(4-{3-[(1S)-1-(2-Chloro-3-fluoro-6-methoxyphenyl)-2-fluoroethyl]-1H-pyrrolo[2,3-b]pyridin-5-yl}-5-methyl-1H-pyrazol-1-yl)cyclohexanol] the figure was no more than 50 nM; with `CCOc1ccc(F)c(Cl)c1[C@@H](C)c1c[nH]c2ncc(-c3cnn([C@H]4CC[C@H](O)CC4)c3C)cc12` [Example 103, trans-4-(4-{3-[(1S)-1-(2-Chloro-6-ethoxy-3-fluorophenyl)ethyl]-1H-pyrrolo[2,3-b]pyridin-5-yl}-5-methyl-1H-pyrazol-1-yl)cyclohexanol], no more than 50 nM; with `C[C@H](c1c(OC(F)F)ccc(F)c1Cl)c1c[nH]c2ncc(-c3cnc(N4CCC(O)CC4)n3C)cc12` [Example 125, 1-[5-(3-{(1S)-1-[2-Chloro-6-(difluoromethoxy)-3-fluorophenyl]ethyl}-1H-pyrrolo[2,3-b]pyridin-5-yl)-1-methyl-1H-imidazol-2-yl]piperidin-4-ol], no more than 50 nM.
On to `COc1ccc(F)c(Cl)c1[C@@H](C)c1c[nH]c2ncc(-c3cnn([C@H]4CC[C@H](O)CC4)c3C)cc12` [Example 27, trans-4-(4-{3-[(1S)-1-(2-Chloro-3-fluoro-6-methoxyphenyl)ethyl]-1H-pyrrolo[2,3-b]pyridin-5-yl}-5-methyl-1H-pyrazol-1-yl)cyclohexanol], for which the IC50 was no more than 50 nM.
With `Cc1c(-c2cnc3[nH]cc([C@@H](CF)c4c(OC(F)F)ccc(F)c4Cl)c3c2)cnn1[C@H]1CC[C@H](O)CC1` [Example 123, trans-4-[4-(3-{(1R)-1-[2-chloro-6-(difluoromethoxy)-3-fluorophenyl]-2-fluoroethyl}-1H-pyrrolo[2,3-b]pyridin-5-yl)-5-methyl-1H-pyrazol-1-yl]cyclohexanol] the figure was 200 to 1000 nM; with `CC(=O)N1CCC(n2ncc(-c3cnc4[nH]cc([C@H](C)c5c(OC(F)F)ccc(F)c5Cl)c4c3)c2C)CC1` [Example 97, 1-{4-[4-(3-{(1S)-1-[2-Chloro-6-(difluoromethoxy)-3-fluorophenyl]ethyl}-1H-pyrrolo[2,3-b]pyridin-5-yl)-5-methyl-1H-pyrazol-1-yl]piperidin-1-yl}ethanone], no more than 50 nM.
`COc1ccc(F)c(Cl)c1[C@@H](C)c1c[nH]c2ncc(-c3cn([C@H]4CC[C@H](O)CC4)nc3OC)cc12` [Example 99, trans-4-(4-{3-[(1S)-1-(2-chloro-3-fluoro-6-methoxyphenyl)ethyl]-1H-pyrrolo[2,3-b]pyridin-5-yl}-3-methoxy-1H-pyrazol-1-yl)cyclohexanol]: the IC50 is no more than 50 nM.
On to `Cc1c(-c2cnc3[nH]cc([C@H](C)c4c(OC(F)F)ccc(F)c4Cl)c3c2)cnn1C1CCNCC1` [Example 96, 3-{(1S)-1-[2-Chloro-6-(difluoromethoxy)-3-fluorophenyl]ethyl}-5-[5-methyl-1-(piperidin-4-yl)-1H-pyrazol-4-yl]-1H-pyrrolo[2,3-b]pyridine], for which the IC50 is no more than 50 nM.
Take `Cc1c(-c2cnc3[nH]cc([C@H](C)c4c(OC(F)F)ccc(F)c4Cl)c3c2)cnn1[C@H]1CC[C@H](O)CC1` [Example 74, trans-4-[4-(3-{(1S)-1-[2-Chloro-6-(difluoromethoxy)-3-fluorophenyl]ethyl}-1H-pyrrolo[2,3-b]pyridin-5-yl)-5-methyl-1H-pyrazol-1-yl]cyclohexanol]: the IC50 was no more than 50 nM.
As for `COc1nn([C@H]2CC[C@H](O)CC2)cc1-c1cnc2[nH]cc([C@H](C)c3c(OC(F)F)ccc(F)c3Cl)c2c1` [Example 100, trans-4-[4-(3-{(1S)-1-[2-chloro-6-(difluoromethoxy)-3-fluorophenyl]ethyl}-1H-pyrrolo[2,3-b]pyridin-5-yl)-3-methoxy-1H-pyrazol-1-yl]cyclohexanol], the half-maximal inhibitory concentration (IC50) was no more than 50 nM.
